≈ marks a conversion by molar mass, not a printed value.
How the values were obtained:
C. neoformans = assay: MIC testing (CLSI broth dilution); assay type: cell-based; conditions: Cryptococcus neoformans, 72 h, strain H99; CLSI conditions
Procedure: (§1) MICs were determined using Clinical and Laboratory Standards Institute guidelines ([48], [49]). All yeasts were cultured overnight in 3 mL YPD at 30°C, then washed twice in sterile phosphate-buffered saline (PBS). Twofold serial dilutions of each drug were prepared in RMPI + MOPS, then 1 × 10^3 cells were added per well. For mold species, wells were inoculated with 1.25 × 10^3 conidia per well. Plates were incubated at 37°C for 24 (Candida spp. and S. cerevisiae), 48 (Aspergillus spp., M. circinelloides, S. apiospermum, and L. prolificans), or 72 (C. neoformans and F. oxysporum) hours. S. cerevisiae BY4743 MICs were tested in YPD due to nutritional requirements of this strain. Each assay was performed in technical duplicate in at least two independent experiments performed on different days.

A. fumigatus = assay: MIC testing (CLSI broth dilution); assay type: cell-based; conditions: Aspergillus fumigatus, 48 h, strain CEA10; CLSI conditions, 48 h; read-out: MIC
Procedure: as §1

[1] = test system: A. fumigatus collagenase secretion; assay: Detection of secreted collagenase by azocoll; assay type: cell-based, Aspergillus fumigatus; conditions: treated with 1/2 MIC of each compound
Procedure: 1 × 10^6 CEA10 conidia/mL were cultured in 25 mL liquid GMM for 18 hours, then mycelia were washed with sterile ddH2O and transferred to 10% FBS-MM and treated with DMSO or the indicated concentration of drugs. Cultures were incubated at 37°C, 250 rpm, for an additional 24 hours, then the supernatant and biomass were collected. One milliliter of supernatant was spun at top speed for 5 min. Azocoll of <50 mesh (Sigma, Cat # 194932) was washed in buffer (50 mM Tris, pH 7.5, 1 mM NaCl, and 0.01% sodium azide) then resuspended to 5 mg/mL. Fifteen microliters of culture supernatant was added to the 2 mL azocoll solution and incubated at 37°C with shaking at 300 rpm for 3 hours in the dark. Reactions were spun at maximum speed for 3 min; 200 µL of supernatant was then transferred to a 96-well plate; and Abs 520 was measured. Biomass was lyophilized, and absorbance readings were normalized to milligram tissue. Data represent the mean and SEM of biological triplicates with technical duplicates except for compounds 5 and 7, which are biological duplicates due to the limited availability of the drug and the required culture size for this assay.

[2] = test system: A. fumigatus UPR-responsive genes; assay: A. fumigatus UPR gene expression (qRT-PCR); assay type: cell-based, Aspergillus fumigatus; conditions: single agent (16 µg/mL 1, or 1 mM DTT for 1 hour); normalized to DMSO
Procedure: We cultured 5 × 10^6 CEA10 conidia/mL in liquid GMM for 18 hours at 37°C with shaking at 250 rpm. Cultures were treated with either DMSO or 16 µg/mL 1 for 2 hours at 37°C, 250 rpm. Then 1 mM DTT or water was added, and cultures were incubated for an additional hour. Mycelia were collected with vacuum filtration and immediately frozen with liquid nitrogen. Tissue was lyophilized then ground with glass beads with a bead beater. RNA was extracted in 1 mL of TRIazole solution (Life Technologies, Cat # 15596026), then RNA was purified with two rounds of chloroform extraction. Five micrograms of RNA was treated with TURBO DNA-free kit (Invitrogen, Cat # AM1907) according to the manufacturer’s protocol. Five hundred nanograms of DNAse-treated RNA was used for cDNA synthesis with iScript cDNA synthesis kit (BioRad, Cat # 1708891), then cDNA was diluted 1:5 with ddH2O. Quantitative real time PCR analysis was performed in 20 µL reactions using 2 µL of dilute cDNA per reaction with iQ SYBR Green Supermix (BioRad). Samples were run on a BioRad CFX Connect using a three-step amplification with 54°C annealing temperature and melt curve analysis. Gene expression is normalized to tubA and tef1 expression. Gene expression was performed in biological triplicate. Primers to detect HacA splicing and targets were designed as previously described ([51]).

A. fumigatus biofilms = assay: A. fumigatus hyphal (biofilm) activity, resazurin; assay type: cell-based, Aspergillus fumigatus; conditions: conidia germinated 14 hours, escalating doses 24 hours
Procedure: To determine antifungal activity against A. fumigatus hyphae, a 96-well plate was inoculated with 1 × 10^3 conidia per well in 100 µL RPMI + MOPS with the edge wells filled with 200 µL sterile water to minimize edge effects. Plates were incubated at 37°C for 14 hours. A twofold dilution series of 1 or 7 was prepared in RPMI + MOPS at 2× concentration with 0.002% resazurin, then 100 µL of the drug was added to wells, and plates were incubated for an additional 24 hours. Fluorescence was measured with an excitation wavelength of 570 nm and an emission wavelength of 615 nm. Data are representative of two independent experiments performed in biological triplicate.

Row | Structure (SMILES) | MIC (C. neoformans) | MIC (A. fumigatus) | collagenase secretion [1] | increase in BipA expression [2] | increase in PdiA expression [2] | increase of spliced HacA (HacA^A) [2] | inhibition of hyphal growth (A. fumigatus biofilms)
1 | OC1CC(c2cc(N3CCC(CCN4CCCC4)CC3)ncn2)C1 (centres unmarked) [compound 4] | 128 µg/mL (≈ 387 µM) | > 128 µg/mL |  |  |  |  | 
2 | OC1CC(c2cc(N3CCC(Cc4ccc(F)cc4)CC3)ncn2)C1 (centres unmarked) [compound 3] | 4 µg/mL (≈ 11.7 µM) | 64 µg/mL (≈ 187 µM) | inhibition of collagenase secretion was similar |  |  |  | 
3 | O[C@@H](CS)[C@@H](O)CS (racemic) [DTT, 1,4-dithiothreitol, reference compound] |  |  |  | 5 fold | 2 fold | ~ 1.5 fold | 
4 | COC1CCN(c2cc(C3CC(O)C3)ncn2)CC1 (centres unmarked) [compound 6] | > 128 µg/mL | > 128 µg/mL |  |  |  |  | 
5 | OC1CC(c2cc(NCC3CCN(CCc4ccccc4)CC3)ncn2)C1 (centres unmarked) [compound 7] | > 128 µg/mL | > 128 µg/mL | modest but insignificant effect |  |  |  | did not show inhibitory activity
